Measurements reported in US9695155B2, “Herbicidal substituted pyrimidinyloxy benzene compounds” (E. I. DU PONT DE NEMOURS AND COMPANY, priority 2013, dated 2017).

What was measured:
yellow nutsedge = experiment: Test C postemergence; assay type: in vivo, Cyperus esculentus
Procedure, shortened: (§1)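 Injury was assessed visually against controls 13 to 15 days after application, with 0 meaning no effect and 100 full control; missing entries are shown as a dash. Preemergence sprays hit seeded loam–sand soil, postemergence sprays hit 1- to 4-leaf plants.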

ragweed = experiment: Test C postemergence; assay type: in vivo, Ambrosia elatior
Procedure, shortened: as §1

galium = experiment: Test C postemergence; assay type: in vivo, Galium aparine; conditions: for Galium plant response rating / Plant response rating, Galium: scale 0 to 100 (0 no effect, 100 complete control)
Procedure, shortened: as §1

giant foxtail [1] = experiment: Test A preemergence; assay type: in vivo, Setaria faberii; conditions: for Foxtail, Giant plant response rating: 0 to 100 scale, 0 no effect, 100 complete control, approx. 10 days
Procedure, shortened: (§2)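 Injury scores run from 0, no effect, to 100, complete control, judged by eye against untreated plants roughly 10 days after treatment. Chemicals carried a surfactant in a non-phytotoxic solvent and went onto loam–sand soil preemergence or onto one- to two-leaf seedlings postemergence.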

barnyardgrass = experiment: Test A postemergence; assay type: in vivo, Echinochloa crus-galli
Procedure, shortened: as §2

giant foxtail [2] = experiment: Test C postemergence; assay type: in vivo, Setaria faberii; conditions: for Foxtail, Giant plant response rating / Plant response rating, Foxtail, Giant: scale 0 to 100 (0 no effect, 100 complete control)
Procedure, shortened: as §1

morningglory [3] = experiment: Test C preemergence; assay type: in vivo, Ipomoea coccinea; conditions: for Morningglory plant response rating: preemergence
Procedure, shortened: as §1

wheat, winter = experiment: Test C postemergence; assay type: in vivo, Triticum aestivum
Procedure, shortened: as §1

morningglory [4] = experiment: Test C postemergence; assay type: in vivo, Ipomoea coccinea
Procedure, shortened: as §1

waterhemp = experiment: Test C preemergence; assay type: in vivo, Amaranthus rudis; conditions: for Waterhemp plant response rating: preemergence
Procedure, shortened: as §1

wheat = experiment: Test A postemergence; assay type: in vivo, Triticum aestivum
Procedure, shortened: as §2

velvetleaf = experiment: Test C preemergence; assay type: in vivo, Abutilon theophrasti; conditions: for Velvetleaf plant response rating: preemergence
Procedure, shortened: as §1

sedge, umbrella = experiment: Test B flooded paddy test; assay type: in vivo, Cyperus difformis; conditions: Flood, 250 g ai/ha; 0 to 100 scale where 0 is no effect and 100 is complete control
Procedure, shortened: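 Scores from 0 (no effect) to 100 (complete control) are visual comparisons with controls, taken 13 to 15 days after compound was applied into floodwater 3 cm deep around 2-leaf plants.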

corn = experiment: Test C preemergence; assay type: in vivo, Zea mays; conditions: for Corn plant response rating: preemergence; for Plant response rating, Corn: Preemergence, 31 g ai/ha, scale 0 to 100, 0 no effect, 100 complete control
Procedure, shortened: as §1

[5] = 16 g ai/ha, postemergence, 0 is no effect, 100 is complete control
[6] = 31 g ai/ha, postemergence, visual rating, scale 0 to 100 (0 no effect, 100 complete control), 13 to 15 days
[7] = 125 g ai/ha, postemergence, visual rating, scale 0 to 100 (0 no effect, 100 complete control)
[8] = Postemergence, 62 g ai/ha, scale 0 to 100 (0 no effect, 100 complete control)
[9] = 31 g ai/ha, postemergence, visual rating, 13 to 15 days
[10] = 125 g ai/ha, postemergence, visual rating
[11] = 1000 g ai/ha, 0 to 100 scale, 0 no effect, 100 complete control
[12] = 16 g ai/ha, scale 0 to 100 (0 no effect, 100 complete control)
[13] = 62 g ai/ha, scale 0 (no effect) to 100 (complete control)
[14] = 125 g ai/ha, scale 0 (no effect) to 100 (complete control)
[15] = Postemergence, 31 g ai/ha, scale 0 to 100 (0 no effect, 100 complete control), 13 to 15 days
[16] = 16 g ai/ha, postemergence, visual rating, 13 to 15 days
[17] = Postemergence, 31 g ai/ha, 13 to 15 days
[18] = 125 g ai/ha, 0 to 100 scale where 0 is no effect and 100 is complete control
[19] = 500 g ai/ha, 0 to 100 scale where 0 is no effect and 100 is complete control
[20] = Preemergence, 31 g ai/ha, scale 0 to 100, 0 no effect, 100 complete control

FCc1cn(-c2c(F)cccc2Oc2ncc(Cl)cn2)nn1 [Compound 154]
Plant response rating (0 to 100), Nutsedge, Yellow (yellow nutsedge; [5]): 5
Nutsedge, Yellow plant response rating (yellow nutsedge; [6]): 10
Plant response rating, Nutsedge, Yellow (yellow nutsedge; [7]): 10
Plant response rating, Nutsedge, Yellow (yellow nutsedge; [8]): 10
Plant response rating (0 to 100), Ragweed (ragweed; [5]): 35
Ragweed plant response rating (ragweed; [6]): 45
Plant response rating, Ragweed (ragweed; [7]): 90
Plant response rating, Ragweed (ragweed; [8]): 100
Plant response rating (0 to 100), Galium (galium; [5]): 60
Galium plant response rating (galium; [9]): 65
Plant response rating, Galium (galium; [10]): 85
Plant response rating, Galium (galium; Postemergence, 62 g ai/ha): 80
Foxtail, Giant plant response rating (giant foxtail [1]; 1000 g ai/ha): 100
Plant response rating, Barnyardgrass (barnyardgrass; [11]): 100
Plant response rating (0 to 100), Foxtail, Giant (giant foxtail [2]; [5]): 5
Foxtail, Giant plant response rating (giant foxtail [2]; [9]): 10
Plant response rating, Foxtail, Giant (giant foxtail [2]; [10]): 15
Plant response rating, Foxtail, Giant (giant foxtail [2]; Postemergence, 62 g ai/ha): 5
Morningglory plant response rating (morningglory [3]; [12]): 10
Morningglory plant response rating (morningglory [3]; [13]): 50
Morningglory plant response rating (morningglory [3]; [14]): 85
Plant response rating (0 to 100), Wheat (wheat, winter; [5]): 0
Wheat plant response rating (wheat, winter; [6]): 0
Plant response rating, Wheat (wheat, winter; [7]): 5
Plant response rating, Wheat (wheat, winter; [8]): 0
Plant response rating (0 to 100), Morningglory (morningglory [4]; [5]): 55
Morningglory plant response rating (morningglory [4]; [6]): 65
Plant response rating, Morningglory (morningglory [4]; [7]): 80
Plant response rating, Morningglory (morningglory [4]; [8]): 65
Waterhemp plant response rating (waterhemp; [12]): 100
Waterhemp plant response rating (waterhemp; [13]): 100
Waterhemp plant response rating (waterhemp; [14]): 100
Plant response rating, Wheat (wheat; [11]): 80
Velvetleaf plant response rating (velvetleaf; [12]): 85
Velvetleaf plant response rating (velvetleaf; [13]): 100
Velvetleaf plant response rating (velvetleaf; [14]): 100
Plant response rating, Sedge, Umbrella (sedge, umbrella): 30
Corn plant response rating (corn; [12]): 5
Corn plant response rating (corn; [13]): 5
Corn plant response rating (corn; [14]): 10
Plant response rating, Corn (corn): 0

CCOc1cnn(-c2c(C#N)cccc2Oc2ncc(F)cn2)c1 [Compound 89]
Plant response rating (0 to 100), Nutsedge, Yellow (yellow nutsedge; 125 g ai/ha, postemergence): 5
Plant response rating, Nutsedge, Yellow (yellow nutsedge; [15]): 5
Plant response rating, Nutsedge, Yellow (yellow nutsedge; [8]): 20
Plant response rating (0 to 100), Ragweed (ragweed; 125 g ai/ha, postemergence): 70
Plant response rating, Ragweed (ragweed; [15]): 40
Plant response rating, Ragweed (ragweed; [8]): 60
Galium plant response rating (galium; [16]): 45
Plant response rating (0 to 100), Galium (galium; 125 g ai/ha, postemergence): 55
Plant response rating, Galium (galium; [17]): 40
Plant response rating, Galium (galium; Postemergence, 62 g ai/ha): 50
Plant response rating, Foxtail, Giant (giant foxtail [1]; [18]): 90
Foxtail, Giant plant response rating (giant foxtail [1]; 500 g ai/ha): 90
Plant response rating, Barnyardgrass (barnyardgrass; [18]): 40
Plant response rating, Barnyardgrass (barnyardgrass; [19]): 90
Foxtail, Giant plant response rating (giant foxtail [2]; [16]): 5
Plant response rating (0 to 100), Foxtail, Giant (giant foxtail [2]; 125 g ai/ha, postemergence): 10
Plant response rating, Foxtail, Giant (giant foxtail [2]; [17]): 5
Plant response rating, Foxtail, Giant (giant foxtail [2]; Postemergence, 62 g ai/ha): 5
Morningglory plant response rating (morningglory [3]; [12]): 45
Morningglory plant response rating (morningglory [3]; [13]): 95
Morningglory plant response rating (morningglory [3]; [14]): 98
Plant response rating, Morningglory (morningglory [3]; [20]): 35
Plant response rating (0 to 100), Wheat (wheat, winter; 125 g ai/ha, postemergence): 5
Plant response rating, Wheat (wheat, winter; [15]): 0
Plant response rating, Wheat (wheat, winter; [8]): 0
Plant response rating (0 to 100), Morningglory (morningglory [4]; 125 g ai/ha, postemergence): 85
Plant response rating, Morningglory (morningglory [4]; [15]): 70
Plant response rating, Morningglory (morningglory [4]; [8]): 55
Waterhemp plant response rating (waterhemp; [12]): 80
Waterhemp plant response rating (waterhemp; [13]): 100
Waterhemp plant response rating (waterhemp; [14]): 100
Plant response rating, Waterhemp (waterhemp; [20]): 100
Plant response rating, Wheat (wheat; [18]): 20
Plant response rating, Wheat (wheat; [19]): 70
Velvetleaf plant response rating (velvetleaf; [12]): 20
Velvetleaf plant response rating (velvetleaf; [13]): 100
Velvetleaf plant response rating (velvetleaf; [14]): 100
Plant response rating, Velvetleaf (velvetleaf; [20]): 70
Plant response rating, Sedge, Umbrella (sedge, umbrella): 85
Corn plant response rating (corn; [12]): 0
Corn plant response rating (corn; [13]): 0
Corn plant response rating (corn; [14]): 5
Plant response rating, Corn (corn): 0
